Each structure is given as a SMILES string.

These results are taken from patent publication US10196386B2, “Compounds having muscarinic receptor antagonist and beta2 adrenergic receptor agonist activity” (priority 2016, dated 2019).

One assay concerns the target T1, Human M3 receptor (Homo sapiens, UniProt P20309).
T1 construct: purchased Perkin Elmer
The experiment in a line: biochemical. The following applies: read-out: M3 Range. The assay is classed as binding.

The target of a further assay is T2, Human β2 adrenoceptor (Homo sapiens, UniProt P07550).
T2 construct: purchased Perkin Elmer
The experiment in a line: β2 adrenoceptor radioligand binding assay. The method, then:
β2 Adrenoceptor Radioligand Binding Assay
Human β2 adrenoceptor membranes (7.5 ug/well) from Perkin Elmer were incubated with 0.3 nM 125-I Cyanopindolol with or without test compounds, or a saturating concentration of s-propranolol (2 μM) for the determination of non-specific binding. The assay was carried out in 96-well polypropylene plates in a volume of 200 ul. The assay buffer used was 25 mM HEPES, 0.5% BSA (w/v), 1 mM EDTA, 0.02% ascorbic acid (v/v), (pH 7.4). The final assay concentration of DMSO was 0.5% (v/v). The plates were sealed and incubated for 1 h at room temperature on an orbital shaker (slow speed). Membranes were harvested onto 96-well unifilter GF/C filter plates pre-treated with 0.5% polyethyleneimine (v/v), using a filter manifold, washed six times with 200 ul of wash buffer containing 10 mM HEPES and 500 mM NaCl. The plates were dried before addition of 50 μl of microscint-0, sealed then read in a Trilux Microbeta scintillation counter. IC50 values are determined from competition curves using a non-linear curve fitting program. Ki values were calculated from IC50 values by the Cheng and Prusoff equation.

T1 sequence (P20309 whole entry): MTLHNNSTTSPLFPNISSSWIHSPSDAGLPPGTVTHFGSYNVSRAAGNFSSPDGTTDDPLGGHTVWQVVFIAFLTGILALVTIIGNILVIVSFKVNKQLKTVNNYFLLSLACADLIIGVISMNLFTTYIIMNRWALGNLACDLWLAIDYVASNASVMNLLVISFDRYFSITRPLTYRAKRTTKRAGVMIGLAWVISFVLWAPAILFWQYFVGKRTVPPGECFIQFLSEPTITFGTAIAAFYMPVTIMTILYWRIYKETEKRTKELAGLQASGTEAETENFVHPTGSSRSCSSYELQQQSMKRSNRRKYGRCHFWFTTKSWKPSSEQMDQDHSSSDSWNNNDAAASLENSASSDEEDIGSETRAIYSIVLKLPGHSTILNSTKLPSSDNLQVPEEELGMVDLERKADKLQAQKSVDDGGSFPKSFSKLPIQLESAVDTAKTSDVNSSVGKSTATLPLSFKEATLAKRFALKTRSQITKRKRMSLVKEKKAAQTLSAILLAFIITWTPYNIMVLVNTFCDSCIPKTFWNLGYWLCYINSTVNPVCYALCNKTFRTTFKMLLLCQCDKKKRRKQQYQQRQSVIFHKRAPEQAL
T2 sequence (P07550 whole entry): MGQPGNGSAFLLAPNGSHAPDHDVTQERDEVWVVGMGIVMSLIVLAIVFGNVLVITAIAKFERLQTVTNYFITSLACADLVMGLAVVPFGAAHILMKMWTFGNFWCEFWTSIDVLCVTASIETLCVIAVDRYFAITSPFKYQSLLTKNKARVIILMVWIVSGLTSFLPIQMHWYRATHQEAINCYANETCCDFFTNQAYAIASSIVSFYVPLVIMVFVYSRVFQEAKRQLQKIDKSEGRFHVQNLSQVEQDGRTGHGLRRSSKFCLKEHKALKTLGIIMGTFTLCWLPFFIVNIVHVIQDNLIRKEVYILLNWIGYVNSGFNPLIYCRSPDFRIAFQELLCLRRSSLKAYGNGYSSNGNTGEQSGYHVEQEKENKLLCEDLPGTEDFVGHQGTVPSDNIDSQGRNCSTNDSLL

Consider `C[C@@H](OC(=O)[C@](O)(c1ccccc1)c1cccc(-c2ccc(CNC(=O)c3ccc(CNC[C@H](O)c4ccc(O)c5[nH]c(=O)ccc45)cc3)s2)c1)C1CCN(Cc2ccccc2)CC1` [Compound 2G, (R)-1-(1-Benzylpiperidin-4-yl)ethyl (S)-2-hydroxy-2-(3-(5-((4-((((R)-2-hydroxy-2-(8-hydroxy-2-oxo-1,2-dihydroquinolin-5-yl)ethyl)amino)-methyl)benzamido)methyl)thiophen-2-yl)phenyl)-2-phenylacetate], for which the IC50 is 300 to 3000 pM at Human M3 receptor and less than 300 pM at Human β2 adrenoceptor.
Turning to `COc1cc(C(=O)NCc2ccc(-c3cccc([C@](O)(C(=O)OCC4CCN(Cc5ccccc5)CC4)c4ccccc4)c3)s2)cc(F)c1CNC[C@H](O)c1ccc(O)c2[nH]c(=O)ccc12` [Compound 1M, (1-Benzylpiperidin-4-yl)methyl (S)-2-(3-(5-((3-fluoro-4-((((R)-2-hydroxy-2-(8-hydroxy-2-oxo-1,2-dihydroquinolin-5-yl)ethyl)amino)methyl)-5-methoxybenzamido)methyl)thiophen-2-yl)phenyl)-2-hydroxy-2-phenylacetate], the IC50 at Human M3 receptor and at Human β2 adrenoceptor was 300 to 3000 pM throughout.
Consider `O=C(NCc1ccc(-c2cccc([C@](O)(C(=O)OCC3CCN(Cc4ccccc4)CC3)c3ccccc3)c2)s1)c1c(F)cc(CNC[C@H](O)c2ccc(O)c3[nH]c(=O)ccc23)cc1Cl` [Compound 1W, (1-Benzylpiperidin-4-yl)methyl (S)-2-(3-(5-((2-chloro-6-fluoro-4-((((R)-2-hydroxy-2-(8-hydroxy-2-oxo-1,2-dihydroquinolin-5-yl)ethyl)amino)methyl)-benzamido)methyl)thiophen-2-yl)phenyl)-2-hydroxy-2-phenylacetate], for which the results for the IC50 at Human M3 receptor and on Human β2 adrenoceptor were 300 to 3000 pM and less than 300 pM, respectively.
For `C[C@H](NC(=O)c1ccc(CNC[C@H](O)c2ccc(O)c3[nH]c(=O)ccc23)cc1)C(=O)N1CC=C(c2cccc([C@](O)(C(=O)OCC3CCN(Cc4ccccc4)CC3)c3ccccc3)c2)CC1` [Compound 8C, (1-Benzylpiperidin-4-yl)methyl (S)-2-hydroxy-2-(3-(1-((4-((((R)-2-hydroxy-2-(8-hydroxy-2-oxo-1,2-dihydroquinolin-5-yl)ethyl)amino)methyl)benzoyl)-L-alanyl)-1,2,3,6-tetrahydropyridin-4-yl)phenyl)-2-phenylacetate] the same measures were 300 to 3000 pM and 300 to 3000 pM.
For `O=C(NCc1ccc(-c2cccc([C@](O)(C(=O)OCC3CCN(Cc4ccccc4)CC3)c3ccccc3)c2)s1)c1cc(F)c(CNC[C@H](O)c2ccc(O)c3[nH]c(=O)ccc23)cc1F` [Compound 1U, (1-Benzylpiperidin-4-yl)methyl (S)-2-(3-(5-((2,5-difluoro-4-((((R)-2-hydroxy-2-(8-hydroxy-2-oxo-1,2-dihydroquinolin-5-yl)ethyl)amino)methyl)-benzamido)methyl)thiophen-2-yl)phenyl)-2-hydroxy-2-phenylacetate] the same measures were 300 to 3000 pM and less than 300 pM.
For `O=C(NCC(=O)N1CCC(c2cccc([C@](O)(C(=O)OCC3CCN(Cc4ccccc4)CC3)c3ccccc3)c2)CC1)c1ccc(CCNC[C@H](O)c2ccc(O)c3[nH]c(=O)ccc23)cc1` [Compound 13, (1-Benzylpiperidin-4-yl)methyl (S)-2-hydroxy-2-(3-(1-((4-(2-(((R)-2-hydroxy-2-(8-hydroxy-2-oxo-1,2-dihydroquinolin-5-yl)ethyl)amino)ethyl)benzoyl)-glycyl)piperidin-4-yl)phenyl)-2-phenylacetate] the same measures were 300 to 3000 pM and less than 300 pM.
With `COc1cc(C(=O)NCc2cnc(-c3cccc([C@](O)(C(=O)OCC4CCN(Cc5ccccc5)CC4)c4ccccc4)c3)cn2)ccc1CNC[C@H](O)c1ccc(O)c2[nH]c(=O)ccc12` [Compound 4H, (1-Benzylpiperidin-4-yl)methyl (S)-2-hydroxy-2-(3-(5-((4-((((R)-2-hydroxy-2-(8-hydroxy-2-oxo-1,2-dihydroquinolin-5-yl)ethyl)amino)methyl)-3-methoxybenzamido)methyl)pyrazin-2-yl)phenyl)-2-phenylacetate], the IC50 on Human M3 receptor was 300 to 3000 pM; on Human β2 adrenoceptor it was less than 300 pM.
